In US9018173B2, “Materials and methods for suppressing inflammatory and neuropathic pain” (Indiana University Research and Technology Corp., priority 2010, dated 2015):
Entries after “also recorded” stand apart in the source; their conditions may differ.

Assays:
[1] = test system: depolarization-induced Ca2+ influx in hippocampal neurons; experiment: Fura-2 calcium imaging of hippocampal neurons; type: cell-based, rat; conditions: expressed from plasmid; KCl 30 mM; Fura-2AM
Procedure: Referring now to FIG. 19. Overexpressed CBD3 or TAT-CBD3 reduces Ca^2+ influx predominantly via N-Type Ca^2+ channels. (FIGS. 19.A and 19.B) hippocampal neurons cultured for 5 days in vitro were transfected with DNA constructs encoding CBD3 or a scramble sequence using Lipofectamine, and then loaded with the ratiometric Ca^2+-sensitive dye Fura-2AM (3 μM). Changes in [Ca^2+]c, in response to plasma membrane depolarization with potassium chloride (KCl, 30 mM), were recorded using time-lapse, wide-field fluorescence microscopy. […] In both panels, n indicates the number of neurons from which Fura-2 fluorescence was recorded. […] (FIG. 19.D) Ca^2+ influx was monitored in DRG neurons using Fura-2AM. […] Changes in the Fura-2 F340/F380 were monitored for 10 min following stimulation with 45 mM KCl. […]
Isolation and maintenance of primary hippocampal neurons for calcium imaging. […] For fluorescence measurements, neurons were plated on glass-bottomed Petri dishes without preplated glia as previously described. […]
Calcium imaging. […] Osmolarity of the solutions was measured with the osmometer Osmette II™ (Precision Systems Inc., Natick, Mass.). […] Fluorescence was recorded through a 505 nm dichroic mirror at 535±25 nm. The fluorescence images were taken every 5 seconds during the time-course of the experiment using the minimal exposure time that provided acceptable image quality. […]

[2] = target: T1, interaction between tubulin and CRMP-2 (Rattus norvegicus, UniProt P47942); experiment: Immunoprecipitation of CRMP-2/tubulin in the presence of peptides; type: binding; conditions: spinal cord lysates
T1 construct: from tissue; host or cells: rat brain / spinal cord lysates (tubulin)

With ARSRLAELRGVPRGL (CBD3) the depolarization-induced calcium influx [1] was “reduced depolarization-induced calcium influx; also recorded: blocked depolarization-induced calcium signaling” and the “interaction between tubulin and CRMP-2 (immunoprecipitation)” value [2] was “did not affect”.
